Laboratory results reported in patent publication US6043365A, “Preparation of 2-amino-7-(1-substituted-2-hydroxyethyl)-3, 5-dihydropyrrolo[3,2-d]pyrimidin-4-ones” (Novartis AG, priority 1998, dated 2000).

How the values were obtained:
[1] = biological target: T1, purine nucleoside phosphorylase (PNP) (Bos taurus, UniProt P55859); assay: PNP inhibition in vitro, enzymic determination of inorganic phosphate (PNP/xanthine oxidase), calf spleen PNP; assay type: biochemical; details: 1 mM phosphate concentration; calf spleen PNP; substrate inosine
T1 construct: Calf spleen PNP is used as the enzyme source; from tissue; host or cells: calf spleen
T1 sequence (P55859 1-289): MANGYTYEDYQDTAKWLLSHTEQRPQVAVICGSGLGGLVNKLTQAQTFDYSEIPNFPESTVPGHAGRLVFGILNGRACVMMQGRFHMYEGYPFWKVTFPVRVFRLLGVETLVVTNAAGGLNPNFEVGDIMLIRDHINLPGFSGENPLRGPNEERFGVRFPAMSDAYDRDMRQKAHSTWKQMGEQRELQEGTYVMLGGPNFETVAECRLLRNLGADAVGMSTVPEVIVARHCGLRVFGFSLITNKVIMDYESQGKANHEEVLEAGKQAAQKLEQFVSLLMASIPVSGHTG
Experimental: PNP inhibition can be measured by measuring the formation of [^14- C]-[…] [Biomedicine, 33, 39 (1980)] using calf spleen as the enzyme source and 1 or 50 mM phosphate. Results are expressed as IC50 values, corresponding to the concentration of compound required to achieve a 50% reduction of the formation of hypoxanthine.
PNP inhibition can also be determined in vitro as follows: An enzymic method for the determination of inorganic phosphate (see Chem. Pharm. Bull., 1981, 29:1451-5), based on the principle of forming hydrogen peroxide with purine nucleoside phosphorylase (PNP) and xanthine oxidase, is used to calorimetrically measure the degree of linkage between enzyme and substrate (inosine). Calf spleen PNP is used as the enzyme source. The IC50 values for the compounds studied are determined graphically at two phosphate concentrations (1 and 50 mM) from a plot of percent inhibition versus compound concentration.

[2] = test system: CCRF-CEM cells; assay: CCRF-CEM cell assay: potentiation of the cell growth inhibitory activity (cytotoxicity) of 2'-deoxyguanosine (d-Guo); assay type: cell-based; details: Homo sapiens, d-Guo 10 μM, 72 hours
Experimental: The selective suppression of spontaneous T-cell proliferation in vitro is measured by the potentiation of the cell growth inhibitory activity (cytotoxicity) of 2'-deoxyguanosine (d-Guo) by the compounds of the invention, determined as follows: Human CCRF-CEM cells are grown in RPMI-1640 medium. To suspension cultures of these cells, d-Guo at a fixed concentration (10 μM) and the candidate PNP inhibitor at varied concentrations are added and the number of cells are determined in a Coulter counter 24, 48, and 72 hours thereafter. […] This method is similar to that previously used to determine the effectiveness of PNP inhibitors on potentiation of the toxicity of d-Guo. [See D. A. Shewach et al., Cancer Res., 46, 519 (1986); J. C. Sircar et al., Agents and Actions, 21, 253 (1987), also Methods in Pharmacology, D. M. Paten, ed. 1985, pp. 147-162].

[3] = test system: purine nucleoside phosphorylase (PNP); assay: PNP inhibition in vivo: plasma inosine level in mice after oral dose; details: at a dose of e.g. 10 mg/Kg p.o.
Experimental: Briefly, mice are treated orally with the PNP inhibitor suspended in fortified cornstarch (3% cornstarch suspension in water with 0.33% Tween 80 and 5% PEG 400) at a final volume of 10 ml/kg. One or more hours after a single oral dose of compound, the mice are bled by cardiac puncture into 25 U/ml heparin to obtain plasma. The samples are analyzed for both inosine and drug levels by a gradient reverse-phase high performance liquid chromatography (HPLC) method (see Anal Chem, 1977, 49:2237-41). Quantitation is performed using an internal standard method with 2',3'-dideoxyinosine (DDI) as the internal standard.

[4] = test system: collagen II induced arthritis; assay: Antiarthritic activity, collagen II induced arthritis in mice model; assay type: in vivo, DBA/1LacJ female mice; details: 20 mg/Kg/day; orally once daily, day 1 through day 42
Experimental: The antiarthritic activity can be determined in the collagen II induced arthritis in mice model. DBA/1LacJ female mice, 6-8 weeks old, are immunized with 100 μg of chicken type II collagen emulsified in Freund's complete adjuvant (FCA) by injecting at the base of the tail on day 0. On day 17 after collagen injection, the immune response to type II collagen is boosted with a subcutaneous injection of 200 μg LPS solubilized in PBS. Paws are examined on days 17, 21, 24, 28, 31, 35, and 42 and scored for the symptoms of arthritis based on criteria such as inflammation, swelling and ankylosis. Compounds are suspended in corn starch vehicle and administered orally to mice once daily beginning on day 1 and continuing through day 42.

[5] = test system: transplant rejection; assay: Protection against transplant rejection, mouse tail skin transplantation procedure; assay type: in vivo, mouse (C57BL/10-SnJ and B10.BR/SgSnJ)
Excerpt: Protection against transplant rejection can be determined in a mouse tail skin transplantation procedure.
Mice are anesthetized with tribromoethanol i.p. injection according to the method of Papaioannou and Fox (Lab. Animal Science 1993;43:189-92). The mouse tail skin transplant rejection model is a modification of that described by Baily and Usama, (Transpl. Bull. 1960;7:424-5). Four skin grafts per mouse are exchanged between strains [C57BL/10-SnJ (H-2K^b) and B10.BR/SgSnJ (H-2K^k)] at surgery (d0). Fitted skin grafts are made with a scalpel, and tail graft sites are protected with tubing for 2 days following surgery. Mouse tails are evaluated at day 7 for missing grafts. Only those graft sites that have patent grafts at day 7 are evaluated at later scoring intervals. Grafts are scored numerically for signs of rejection at ~weekly scoring intervals starting day 14. Dose-group mean graft scores are compared statistically.

Row | SMILES | IC50 [1] [nM] | IC50 [2] [nM] | plasma level of inosine [3] | antiarthritic activity [4] | protection against transplant rejection ([5]; 50 mg/Kg/day, mouse) | transplant rejection model, combination with cyclosporin ([5]; combination of compound and cyclosporin vs either alone)
1 | Nc1nc2c([C@@H](CO)c3ccccc3F)c[nH]c2c(=O)[nH]1 [Example 1, 2-amino-7-[1-(2-fluorophenyl)-2(R)-hydroxyethyl]-3,5-dihydro-4H-pyrrolo[3,2-d]pyrimidin-4-one] | ~10 | ~75 | significant increase in the plasma level of inosine | effective | effective in protecting against transplant rejection | superior to either cyclosporin or the PNP inhibitor alone
2 | Nc1nc2c([C@@H](CO)c3ccccc3)c[nH]c2c(=O)[nH]1 [Example 3f, 2-Amino-7-(2(S)-hydroxy-1-phenylethyl)-3,5-dihydro-4H-pyrrolo[3,2-d]-pyrimidin-4-one] | ~10 | ~100 | significant increase in the plasma level of inosine | – | – | –
